Ends that are not written are not given here. Peptide text beside a SMILES is read from it.
target: LDLR (Homo sapiens, UniProt P01130); assay: LDLR binding (SPR), high surfactant preparation; conditions: not given
Procedure: The table shown in FIG. 23 illustrates LDLR binding data (SPR), using a high surfactant preparation. Recombinant LDLR was diluted in 10 mM acetate buffer pH 4.5 and amine coupled to a CM5 chip at 1000 RU. Peptides were diluted to 5 μM in running buffer (HBS-P+, 1 mM CaCl2) and serially diluted 1:3 for 5 total concentrations. Peptides were exposed to immobilized LDLR at a rate of […] for 120 seconds. Between cycles, the chip surface was regenerated with 3 injections of 50 mM NaOH/100 mM EDTA. Multi-Cycle Kinetics was performed on a Biacore Insight Evaluation Software and binding kinetics were analyzed with a 1:1 binding model.

LDLR, sequence (P01130 22-860): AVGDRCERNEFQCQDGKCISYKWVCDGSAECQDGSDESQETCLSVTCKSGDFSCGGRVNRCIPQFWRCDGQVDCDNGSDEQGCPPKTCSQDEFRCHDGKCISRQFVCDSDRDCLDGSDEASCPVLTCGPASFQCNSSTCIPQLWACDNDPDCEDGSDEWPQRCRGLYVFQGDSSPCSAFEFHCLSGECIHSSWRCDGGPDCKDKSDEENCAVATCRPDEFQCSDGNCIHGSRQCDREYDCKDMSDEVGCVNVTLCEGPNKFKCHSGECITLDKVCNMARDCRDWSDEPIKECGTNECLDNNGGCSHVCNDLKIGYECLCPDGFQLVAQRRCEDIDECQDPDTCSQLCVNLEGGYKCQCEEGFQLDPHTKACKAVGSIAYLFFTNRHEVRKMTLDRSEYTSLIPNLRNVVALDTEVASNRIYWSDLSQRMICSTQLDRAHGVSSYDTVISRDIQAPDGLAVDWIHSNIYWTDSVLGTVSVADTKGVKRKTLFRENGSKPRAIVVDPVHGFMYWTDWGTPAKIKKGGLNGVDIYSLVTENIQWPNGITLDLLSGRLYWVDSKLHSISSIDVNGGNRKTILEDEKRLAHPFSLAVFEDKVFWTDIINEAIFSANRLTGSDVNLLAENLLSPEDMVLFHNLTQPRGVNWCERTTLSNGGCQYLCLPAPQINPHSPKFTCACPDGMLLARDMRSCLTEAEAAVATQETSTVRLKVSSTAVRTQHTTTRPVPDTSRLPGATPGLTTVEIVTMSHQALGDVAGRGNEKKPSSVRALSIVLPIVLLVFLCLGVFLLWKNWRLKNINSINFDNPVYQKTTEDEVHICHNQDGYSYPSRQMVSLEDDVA

Compound	Kd [µM]
MEDVRGRLVQYRGEVQAMLGQSTEELRVRLASHLRKLRKRLLRDADDLQKRLAVYQA [T-068]	< 10
CC(C)C[C@H](NC(=O)[C@H](CCCNC(=N)N)NC(=O)[C@H](CC(=O)O)NC(=O)[C@H](CCC(N)=O)NC(=O)[C@H](CC(C)C)NC(=O)[C@H](CCCCN)NC(=O)[C@H](CC(=O)O)NC(=O)CNC(=O)[C@H](CC(=O)O)NC(=O)[C@H](CCCNC(=N)N)NC(=O)[C@H](CC(C)C)NC(=O)[C@H](CC(C)C)NC(=O)[C@H](CCCNC(=N)N)NC(=O)[C@H](CCCNC(=N)N)NC(=O)[C@H](CCCNC(=N)N)NC(=O)[C@H](CC(C)C)NC(=O)[C@H](CCCNC(=N)N)NC(=O)[C@H](CCCNC(=N)N)NC(=O)[C@H](CC(C)C)NC(=O)[C@@H](N)Cc1c[nH]cn1)C(=O)N[C@@H](C)C(=O)N[C@@H](CCC(=O)O)C(=O)N[C@@H](Cc1ccc(O)cc1)C(=O)N[C@@H](CCC(N)=O)C(=O)N[C@@H](C)C(=O)N[C@@H](CCCNC(=N)N)C(=O)N[C@@H](C)C(=O)N[C@@H](CCCCN)C(=O)N[C@@H](CCC(=O)O)C(=O)N[C@@H](C)C(=O)N[C@@H](Cc1ccccc1)C(=O)N[C@@H](CC(=O)O)C(=O)N[C@@H](CCCNC(=N)N)C(=O)O [T-041] (H-HLRRLRRRLLRDGDKLQDRLAEYQARAKEAFDR-OH)	< 10
DAWERFRALFKELADYFRLGQSTEELRVRLASHLRKLRKRLLRDADDLQKRLAVYQA [T-116]	< 10
WKDFGERVERALREQFEDLGQSTEELRVRLASHLRKLRKRLLRDADDLQKRLAVYQA [T-113]	< 10

same assay, conditions: high surfactant preparation (HBS-P+), 1:1 binding model; read-out: binding KD to LDLR

Compound	Kd [µM]
CC(C)C[C@H](NC(=O)[C@H](CCCNC(=N)N)NC(=O)[C@H](CCCCN)NC(=O)[C@H](CCC(N)=O)NC(=O)[C@H](CC(C)C)NC(=O)[C@H](CCCCN)NC(=O)[C@H](CC(=O)O)NC(=O)CNC(=O)[C@H](CC(=O)O)NC(=O)[C@H](CCCNC(=N)N)NC(=O)[C@H](CC(C)C)NC(=O)[C@H](CC(C)C)NC(=O)[C@H](CCCNC(=N)N)NC(=O)[C@H](CCCCN)NC(=O)[C@H](CCCNC(=N)N)NC(=O)[C@H](CC(C)C)NC(=O)[C@H](CCCCN)NC(=O)[C@H](CCCNC(=N)N)NC(=O)[C@H](CC(C)C)NC(=O)[C@@H](N)Cc1c[nH]cn1)C(=O)N[C@@H](C)C(=O)N[C@@H](CCC(=O)O)C(=O)N[C@@H](Cc1ccc(O)cc1)C(=O)N[C@@H](CCC(N)=O)C(=O)N[C@@H](C)C(=O)N[C@@H](CCCNC(=N)N)C(=O)N[C@@H](C)C(=O)N[C@@H](CCCCN)C(=O)N[C@@H](CCC(=O)O)C(=O)N[C@@H](C)C(=O)N[C@@H](Cc1ccccc1)C(=O)N[C@@H](CC(=O)O)C(=O)N[C@@H](CCCNC(=N)N)C(=O)O [T-052] (H-HLRKLRKRLLRDGDKLQKRLAEYQARAKEAFDR-OH)	< 10
CC(C)C[C@H](NC(=O)[C@H](CCCNC(=N)N)NC(=O)[C@H](CCCCN)NC(=O)[C@H](CCC(N)=O)NC(=O)[C@H](CC(C)C)NC(=O)[C@H](CC(=O)O)NC(=O)[C@H](CC(=O)O)NC(=O)[C@H](C)NC(=O)[C@H](CC(=O)O)NC(=O)[C@H](CCCNC(=N)N)NC(=O)[C@H](CC(C)C)NC(=O)[C@H](CC(C)C)NC(=O)[C@H](CCCNC(=N)N)NC(=O)[C@H](CCCCN)NC(=O)[C@H](CCCNC(=N)N)NC(=O)[C@H](CC(C)C)NC(=O)[C@H](CCCCN)NC(=O)[C@H](CCCNC(=N)N)NC(=O)[C@H](CC(C)C)NC(=O)[C@@H](N)Cc1c[nH]cn1)C(=O)N[C@@H](C)C(=O)N[C@@H](CCC(=O)O)C(=O)N[C@@H](Cc1ccc(O)cc1)C(=O)N[C@@H](CCC(N)=O)C(=O)N[C@@H](C)C(=O)N[C@@H](CCCNC(=N)N)C(=O)N[C@@H](C)C(=O)N[C@@H](CCCCN)C(=O)N[C@@H](CCC(=O)O)C(=O)N[C@@H](C)C(=O)N[C@@H](Cc1ccccc1)C(=O)N[C@@H](CC(=O)O)C(=O)N[C@@H](CCCNC(=N)N)C(=O)O [T-064] (H-HLRKLRKRLLRDADDLQKRLAEYQARAKEAFDR-OH)	< 10
CC(C)C[C@H](NC(=O)[C@H](CCCNC(=N)N)NC(=O)[C@H](CC(=O)O)NC(=O)[C@H](CCC(N)=O)NC(=O)[C@H](CC(C)C)NC(=O)[C@H](CCCCN)NC(=O)[C@H](CC(=O)O)NC(=O)CNC(=O)[C@H](CC(=O)O)NC(=O)[C@H](CCCNC(=N)N)NC(=O)[C@H](Cc1ccccc1)NC(=O)[C@H](CC(C)C)NC(=O)[C@H](CCCNC(=N)N)NC(=O)[C@H](CCCCN)NC(=O)[C@@H](NC(=O)[C@H](CC(C)C)NC(=O)[C@H](CCCCN)NC(=O)[C@H](CCCNC(=N)N)NC(=O)[C@H](CC(C)C)NC(=O)[C@@H](N)Cc1c[nH]cn1)C(C)C)C(=O)N[C@@H](C)C(=O)N[C@@H](CCC(=O)O)C(=O)N[C@@H](Cc1ccc(O)cc1)C(=O)N[C@@H](CCC(N)=O)C(=O)N[C@@H](C)C(=O)N[C@@H](CCCNC(=N)N)C(=O)N[C@@H](C)C(=O)N[C@@H](CCCCN)C(=O)N[C@@H](CCC(=O)O)C(=O)N[C@@H](C)C(=O)N[C@@H](Cc1ccccc1)C(=O)N[C@@H](CC(=O)O)C(=O)N[C@@H](CCCNC(=N)N)C(=O)O [T-059] (H-HLRKLVKRLFRDGDKLQDRLAEYQARAKEAFDR-OH)	< 10
CC(C)C[C@H](NC(=O)[C@H](CCCNC(=N)N)NC(=O)[C@H](CCCCN)NC(=O)[C@H](CCC(N)=O)NC(=O)[C@H](CC(C)C)NC(=O)[C@H](CC(=O)O)NC(=O)[C@H](CC(=O)O)NC(=O)[C@H](C)NC(=O)[C@H](CC(=O)O)NC(=O)[C@H](CCCNC(=N)N)NC(=O)[C@H](CC(C)C)NC(=O)[C@H](CC(C)C)NC(=O)[C@H](CCCNC(=N)N)NC(=O)[C@H](CCCCN)NC(=O)[C@H](CCCNC(=N)N)NC(=O)[C@H](CC(C)C)NC(=O)[C@H](CCCCN)NC(=O)[C@H](CCCNC(=N)N)NC(=O)[C@H](CC(C)C)NC(=O)[C@H](Cc1c[nH]cn1)NC(=O)[C@H](CO)NC(=O)[C@H](C)NC(=O)[C@@H](N)CC(C)C)C(=O)N[C@@H](C)C(=O)N[C@H](C(=O)N[C@@H](Cc1ccc(O)cc1)C(=O)N[C@@H](CCC(N)=O)C(=O)N[C@@H](C)C(=O)NCC(=O)N[C@@H](C)C(=O)N[C@@H](CCCNC(=N)N)C(=O)N[C@@H](CCC(=O)O)C(=O)NCC(=O)N[C@@H](C)C(=O)N[C@@H](CCC(=O)O)C(=O)N[C@@H](CCCNC(=N)N)C(=O)O)C(C)C [T-046]	< 10
CC(C)C[C@H](NC(=O)[C@H](CCCNC(=N)N)NC(=O)[C@H](CC(=O)O)NC(=O)[C@H](CCC(N)=O)NC(=O)[C@H](CC(C)C)NC(=O)[C@H](CCCCN)NC(=O)[C@H](CC(=O)O)NC(=O)CNC(=O)[C@H](CC(=O)O)NC(=O)[C@H](CCCNC(=N)N)NC(=O)[C@H](CC(C)C)NC(=O)[C@H](CC(C)C)NC(=O)[C@H](CCCNC(=N)N)NC(=O)[C@H](CCCCN)NC(=O)[C@H](CCCNC(=N)N)NC(=O)[C@H](CC(C)C)NC(=O)[C@H](CCCCN)NC(=O)[C@H](CCCNC(=N)N)NC(=O)[C@H](CC(C)C)NC(=O)[C@@H](N)Cc1c[nH]cn1)C(=O)N[C@@H](C)C(=O)N[C@@H](CCC(=O)O)C(=O)N[C@@H](Cc1ccc(O)cc1)C(=O)N[C@@H](CCC(N)=O)C(=O)N[C@@H](C)C(=O)N[C@@H](CCCNC(=N)N)C(=O)N[C@@H](C)C(=O)N[C@@H](CCCNC(=N)N)C(=O)N[C@@H](CCC(=O)O)C(=O)N[C@@H](C)C(=O)N[C@@H](Cc1ccccc1)C(=O)N[C@@H](CC(=O)O)C(=O)N[C@@H](CCCNC(=N)N)C(=O)O [T-055] (H-HLRKLRKRLLRDGDKLQDRLAEYQARAREAFDR-OH)	< 10
CC(C)C[C@H](NC(=O)[C@H](CCCNC(=N)N)NC(=O)[C@H](CC(=O)O)NC(=O)[C@H](CCC(N)=O)NC(=O)[C@H](CC(C)C)NC(=O)[C@H](CCCCN)NC(=O)[C@H](CC(=O)O)NC(=O)CNC(=O)[C@H](CC(=O)O)NC(=O)[C@H](CCCNC(=N)N)NC(=O)[C@H](CC(C)C)NC(=O)[C@H](CC(C)C)NC(=O)[C@H](CCCNC(=N)N)NC(=O)[C@H](CCCCN)NC(=O)[C@H](CCCNC(=N)N)NC(=O)[C@H](CC(C)C)NC(=O)[C@H](CCCCN)NC(=O)[C@H](CCCNC(=N)N)NC(=O)[C@H](CC(C)C)NC(=O)[C@@H](N)Cc1c[nH]cn1)C(=O)N[C@@H](C)C(=O)N[C@@H](CCC(=O)O)C(=O)N[C@@H](Cc1ccc(O)cc1)C(=O)N[C@@H](CCC(N)=O)C(=O)N[C@@H](C)C(=O)N[C@@H](CCCNC(=N)N)C(=O)N[C@@H](C)C(=O)N[C@@H](CCCCN)C(=O)N[C@@H](CCC(=O)O)C(=O)N[C@@H](C)C(=O)N[C@@H](Cc1ccccc1)C(=O)N[C@@H](CC(=O)O)C(=O)N[C@@H](CCCNC(=N)N)C(=O)O [T-040] (H-HLRKLRKRLLRDGDKLQDRLAEYQARAKEAFDR-OH)	< 10

test system: not listed separately; assay: DMPC solubility assay, 0.5 mM DMPC (turbidity reduction); assay type: biochemical; conditions: FIGS. 2A-2D and 3A-3C
Procedure: In this example, peptide stocks were diluted to 200 μM in H2O (a 2× solution) and 50 μL of peptide solution was transferred in triplicate into 96-well plates. A one mM solution of 1,2-dimyristoyl-sn-glycero-3-phosphocholine (DMPC) in H2O was prepared, and using a multichannel pipet, 50 μL DMPC solution was rapidly added to the plate. Peptide and lipid solutions were incubated at room temperature for 15 minutes with a final concentration of 100 μM peptides and 0.5 mM DMPC. After 15 minutes, absorbance was read on a plate reader at 405 nm. […] Data are presented as mean+SD over two runs.
In these experiments, DMPC solubility titration curves were generated. Peptide stocks were diluted to 200 μM in H2O (a 2× solution) and serially diluted in H2O over 4 concentrations, then 50 μL of peptide solutions were distributed in triplicate into 96-well plates. A 1 mM solution of 1,2-dimyristoyl-sn-glycero-3-phosphocholine (DMPC) in H2O was prepared, and using a multichannel pipet, 50 μL DMPC solution was rapidly added to the plate. Peptide and lipid solutions were incubated at room temperature for 15 minutes with final concentrations of 3.16-100 μM peptides and 0.5 mM DMPC. After 15 minutes, absorbance was read on a plate reader at 405 nm. […] Data are presented as mean+SD over two runs. Non-linear regression was used to calculate EC50 values.

Compound	DMPC solubilizing activity
T-006: therapeutic peptide (QDEPPQSPWDRVKDLATVYVDVLKDSGRDYVSQFEGSALGKQLN)	significant activity
T-020: therapeutic peptide (DGDKLCDRLAEYCARAKEAFDR)	did not have significant solubilizing activity
T-010: therapeutic peptide (RDADDLQKRLAVYQAGAREGAE)	significant activity
T-015: therapeutic peptide (LVGRQLEEFL)	did not have significant solubilizing activity
T-017: therapeutic peptide (PLRAELQEGARQKLHELQEKLSPPLRAELQEGARQKLHELQEKLS)	did not have significant solubilizing activity
